Data reported in PubChem BioAssay (NCI).
Values joined by “and” are separate entries in the source; they are usually repeats but may differ in a detail not shown here. Equal entries are not always repeated.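 Method: 48-hour compound exposure of cells in 96-well plates, five concentrations, linear interpolation of endpoints. At the GI50, growth is halved. At the TGI there is no net growth.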

Legend:
Test in all cases: NCI-60 cell line screen, 48 h
HOP-62 NSCLC = test system: HOP-62 NSCLC
CAKI-1 renal = test system: CAKI-1 renal
KM12 colon = test system: KM12 colon
NCI/ADR-RES ovarian = test system: NCI/ADR-RES ovarian
RXF 393 renal = test system: RXF 393 renal
UACC-257 melanoma = test system: UACC-257 melanoma
SR leukemia = test system: SR leukemia
HCC-2998 colon = test system: HCC-2998 colon
HT29 colon = test system: HT29 colon
OVCAR-3 ovarian = test system: OVCAR-3 ovarian

SMILES | GI50 (HOP-62 NSCLC) | TGI (HOP-62 NSCLC) | GI50 (CAKI-1 renal) | TGI (CAKI-1 renal) | GI50 (KM12 colon) | TGI (KM12 colon) | GI50 (NCI/ADR-RES ovarian) | TGI (NCI/ADR-RES ovarian) | GI50 (RXF 393 renal) [µM] | TGI (RXF 393 renal) | GI50 (UACC-257 melanoma) | TGI (UACC-257 melanoma) | GI50 (SR leukemia) | TGI (SR leukemia) [µM] | GI50 (HCC-2998 colon) | TGI (HCC-2998 colon) | GI50 (HT29 colon) [µM] | TGI (HT29 colon) | GI50 (OVCAR-3 ovarian) | TGI (OVCAR-3 ovarian)
CC(C)n1nc(-c2ccc3oc(N)nc3c2)c2c(N)ncnc21 | 0.0198 µM and 0.0212 µM | 0.793 µM and 0.435 µM | < 0.0157 µM and 0.0161 µM | 0.725 µM and 0.265 µM | 0.0222 µM and 0.0179 µM | 5.01 µM and 2.24 µM | 0.0251 µM and 0.0245 µM | 0.58 µM and 0.83 µM | < 0.01 | 0.043 µM and 0.0533 µM | < 0.0123 µM and 0.0137 µM | 0.145 µM and 0.121 µM | 0.0284 µM and < 0.0112 µM | 3.84 | 0.024 µM and 0.0259 µM | 11.5 µM and 11.9 µM | 0.0272 | 10.8 µM and 5.32 µM | < 0.013 µM and 0.012 µM | 0.411 µM and 0.759 µM
CCCCNC(=O)Oc1ccc(/C(=C(/C)Cc2ccc(OC)cc2)c2ccc(OCCN3CCCC3)cc2)cc1 | 2.65 µM | 11.3 µM | 1.63 µM | 3.5 µM | 2.03 µM | 4.49 µM | 3.11 µM | 11.6 µM | 2.07 | 3.79 µM | 1.88 µM | 3.44 µM | 1.86 µM | 5.44 | 1.83 µM | 3.48 µM | 1.89 | 3.85 µM | 1.79 µM | 3.47 µM
Cc1[nH]c(-c2nc3ccccc3[nH]2)c(C)c1C(=O)NC(C)C1CCCCC1 (stereo not given) | 12.7 µM | 38.3 µM | 10.4 µM | 22.2 µM | 10.2 µM | 22.8 µM | 10.2 µM | 28 µM | 3.17 | 11 µM | 13.2 µM | 33.3 µM | 4.38 µM | 34.5 | 13.6 µM | 34.6 µM | 4.89 | 38.2 µM | 9.72 µM | 21.6 µM
C/C(=N\N=C(\[Se])N(C)C)c1ccccn1 | – | 1.33 µM | – | 16.1 µM | – | 17.9 µM | – | 1.67 µM | – | 6.23 µM | – | 0.162 µM | – | 23.7 | – | 13.9 µM | – | 14.2 µM | – | 11.8 µM
O=[n+]1c2ccccc2n([O-])c2cc(Cl)ccc21 | 3.15 µM | 10.9 µM | 3.28 µM | 13.1 µM | 5.77 µM | 18.4 µM | 4.31 µM | 40.3 µM | 3.03 | 10 µM | 5.49 µM | 18.1 µM | 2.19 µM | 7.53 | 6.81 µM | 20.5 µM | 3.6 | 13.5 µM | 3.48 µM | 12.3 µM
CCc1cc2ncc(CN3CCN(c4ccc(C(=O)NC)nc4)CC3)cc2[nH]c1=O | 55.7 µM | > 100 µM | 24.2 µM | > 100 µM | > 100 µM | > 100 µM | > 100 µM | > 100 µM | 17 | > 100 µM | 55.1 µM | > 100 µM | 11.5 µM | > 100 | 87.9 µM | > 100 µM | 48.2 | > 100 µM | 40.5 µM | > 100 µM
COc1cc2ncnc(Nc3ccc4c(cnn4Cc4ccccc4)c3)c2cc1OC | > 25 µM | > 25 µM | 0.385 µM | > 25 µM | 18.7 µM | > 25 µM | > 19.5 µM | > 25 µM | 8.92 | > 25 µM | > 25 µM | > 25 µM | 24.9 µM | > 25 | > 25 µM | > 25 µM | 8.77 | > 25 µM | 15.1 µM | > 25 µM
COc1ccc(/C=C2\CN(Cc3cn(CCNc4ccnc5cc(Cl)ccc45)nn3)C/C(=C\c3ccc(OC)c(OC)c3)C2=O)cc1OC | 3.9 µM | 26.2 µM | 7.22 µM | > 100 µM | 1.87 µM | 3.6 µM | > 100 µM | > 100 µM | 1.81 | 3.62 µM | 4.8 µM | 23.1 µM | 2.04 µM | > 100 | 1.96 µM | 3.62 µM | 3.13 | 8.82 µM | 2.8 µM | 8.57 µM
